Experimental data published in patent publication US7658916B2, “Methods of enhancing lysosomal storage disease therapy by modulation of cell surface receptor density” (Genzyme Corporation, priority 2002, dated 2010).

Key:
Details in all cases: separate experiment, FIG. 9
normal fibroblast cells = assay: Alpha-galactosidase uptake by normal fibroblasts in vitro; type: cell-based, human
Protocol: Before the uptake assay, the cells were washed once with PBS and once with DMEM minus glucose media (Gibco#11966-025), then the cells were starved in 1.5 ml of DMEM minus glucose media for 1 hour at 37° C. […] The lysates were assay for alpha-galactosidase activity with 4-MU-galactoside (Sigma #M-7633) as substrate and normalized to protein content.
Human skin fibroblasts (ATCC# CRL-1502) were grown at 37° C. under 5% CO2 in MEM with Earle's balanced salts, 2× essential and non-essential amino acids (NEAA) (Gibco# 11130-051, 11140-050) and vitamin (Gibco# 1120-052), 20% fetal bovine serum (Gibco# 16000-044, not heat-inactivated) plus 1× penicillin/streptomycin. The pH of the media was adjusted to approximately 7 with sodium bicarbonate (Gibco #25080-094).

Hep 3B cells = assay: Alpha-galactosidase uptake by Hep3B cells (hepatocytes) in vitro; type: cell-based
Protocol: Muscles are the major target tissues for enzyme replacement therapy of Pompe disease due to the lack of acid alpha-glucosidase. To determine if the M6P/IGF-II receptor-mediated lysosomal enzyme uptake pathway can be augmented by insulin/glucose, the effects of insulin/glucose were analyzed on induced muscle cells (myotubes) in vitro. L6 myoblasts (or induced myotubes) and Hep3B cells were cultured in 6-well dishes. Rat L6 myoblasts (ATCC# CRL-1458) were cultured at 37° C. under 5% CO2 in VitaCell DMEM media (ATCC# 30-2002) with 4 mM L-glutamine, 10% fetal bovine serum (Gibco #16000-044) and 1× penicillin/streptomycin. Once confluent, cells were switched to VitaCell DMEM plus 2% horse sera (Gibco# 26050-088) and 1× penicillin/streptomycin. Media were changed every 3 days and at day 9-10, myotubes could be observed as multinuclear tubes. About 30-40% of the myoblasts formed myotubes. Cells were used for uptake assay at day 10. Hep3B cells were grown in MEM-eagle (Gibco# 11960-044) with 10% FBS, 1×NEAA, 1× sodium pyruvate and 1× penicillin/streptomycin.
Before the uptake assay, the cells were washed once with PBS and once with DMEM minus glucose media (Gibco#11966-025), then the cells were starved in 1.5 ml of DMEM minus glucose media for 1 hour at 37° C. […]

Fabry fibroblast cells = assay: Alpha-galactosidase uptake by Fabry fibroblasts in vitro; type: cell-based
Protocol: Before the uptake assay, the cells were washed once with PBS and once with DMEM minus glucose media (Gibco#11966-025), then the cells were starved in 1.5 ml of DMEM minus glucose media for 1 hour at 37° C. After starvation, the cells were switched to uptake media (DMEM with or without glucose, plus 4 mg/ml BSA, 2.5 mM beta-glycerophosphate (Sigma #G-6376), 25 mM Hepes, pH 6.8. Insulin (Calbiochem, #40769), M6P (Sigma # M-6876) and 2 μg/ml recombinant human alpha-galactosidase (as a model protein because of its better M6P phosphylation) were added as indicated in FIGS. 7A and 7B. Uptake of enzyme was continued for 4 hours at 37° C. After uptake, the cells were washed twice with PBS containing 1 mM M6P and once with PBS, then lysed in alpha-galactosidase assay buffer (50 mM sodium citrate, […]) plus 1% Triton X-100 and protease inhibitors. The lysates were assay for alpha-galactosidase activity with 4-MU-galactoside (Sigma #M-7633) as substrate and normalized to protein content.
Human skin fibroblasts (ATCC# CRL-1502) were grown at 37° C. under 5% CO2 in MEM with Earle's balanced salts, 2× essential and non-essential amino acids (NEAA) (Gibco# 11130-051, 11140-050) and vitamin (Gibco# 1120-052), 20% fetal bovine serum (Gibco# 16000-044, not heat-inactivated) plus 1× penicillin/streptomycin. […]

insulin: Insulin (Calbiochem, #40769)
about 200%: alpha-galactosidase uptake by normal fibroblast cells increased to (normal fibroblast cells) | alpha-galactosidase uptake by Hep 3B cells increased to (Hep 3B cells) | alpha-galactosidase uptake by Fabry fibroblast cells increased to (Fabry fibroblast cells)
